Measurements from patent publication US11000033B2, “Ketone or oxime compound, and herbicide” (NISSAN CHEMICAL CORPORATION, priority 2014, dated 2021).

Assays:
Format in all cases: in vivo
[1] = tested on: Apera spica-venti; experiment: Test Example 4: herbicidal effect by soil treatment (symbol L); conditions: for Herbicidal effect grade, L: Apera spica-venti: application herbicide amount 320 g/ha
In short: (§1)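 Seeds were sown in sterilized diluvial soil, covered with about 1.5 cm of soil, and the soil surface was sprayed with a water-diluted emulsion of the compound at a predetermined rate. Plants grew in a greenhouse at 25° C. to 30° C.; effects were scored visually 3 weeks after application.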

[2] = tested on: rice plant; experiment: Test Example 5: effect on crop by foliage application, plastic box (symbol b); conditions: 3 weeks after application
In short: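 Crop seed is sown alongside grass and broadleaf weed species in spots in sterilized diluvial soil, then covered to a depth of about 1.5 cm. Plants grow in a greenhouse kept at 25° C. to 30° C.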

[3] = tested on: Monochoria vaginalis; experiment: Test Example 2: herbicidal activity, application during weed generation in submerged conditions (symbol C); conditions: Table 23, grade 0-5 by criteria of Test Example 1
In short: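 Weeds emerging under flooded conditions were treated with compound formulated as an emulsion and diluted with water to the intended herbicide amount, poured onto the surface of 4 cm standing water. Seeds had been co-sown in alluvial soil; plants grew at 25° C. to 30° C. and were assessed after 3 weeks.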

[4] = tested on: Digitaria ciliaris; experiment: Test Example 5: herbicidal effect by foliage application, plastic box (symbol F); conditions: 3 weeks after application
In short: (§2)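 Post-emergence spray; diluvial soil (sterilized), ~1.5 cm seed cover; greenhouse 25–30° C; 14-day-old plants; water-diluted emulsion at predetermined dose; visual score at 3 wk post-treatment.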

[5] = tested on: soybean; experiment: Test Example 4: effect on crop by soil treatment (symbol d); conditions: for Effect on crop grade, d: soybean: application herbicide amount 320 g/ha
In short: (§3)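 Plants grew in a 25° C. to 30° C. greenhouse after spot-sowing of seeds, including beet, rapeseed, wheat and rice, into sterilized diluvial soil under roughly 1.5 cm of cover soil.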

[6] = tested on: Abutilon theophrasti; experiment: Test Example 4: herbicidal effect by soil treatment (symbol M); conditions: for Herbicidal effect grade, M: Abutilon theophrasti: application herbicide amount 320 g/ha
In short: as §1

[7] = tested on: Avena fatua; experiment: Test Example 4: herbicidal effect by soil treatment (symbol I); conditions: for Herbicidal effect grade, I: Avena fatua: application herbicide amount 320 g/ha
In short: as §1

[8] = tested on: Chenopodium album; experiment: Test Example 5: herbicidal effect by foliage application, plastic box (symbol O); conditions: 3 weeks after application
In short: as §2

[9] = tested on: Scirpus juncoides; experiment: Test Example 1: herbicidal activity, application before weed generation in submerged conditions (symbol B)
In short: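 Pre-emergence, paddy conditions: emulsifiable formulation diluted in water, dosed onto floodwater (4 cm depth) on sowing day. Alluvial soil; weeds sown mixed; rice transplanted at 2.5-leaf stage. Greenhouse 25–30 °C, 3 wk. Score 0–5 (5 = ≥90% kill, 0 = ≤5%).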

[10] = tested on: Stellaria media; experiment: Test Example 4: herbicidal effect by soil treatment (symbol P); conditions: for Herbicidal effect grade, P: Stellaria media: application herbicide amount 320 g/ha
In short: as §1

[11] = tested on: rice; experiment: Test Example 4: effect on crop by soil treatment (symbol b); conditions: for Effect on crop grade, b: directly sowed rice plant: application herbicide amount 320 g/ha
In short: as §3

[12] = tested on: wheat; experiment: Test Example 4: effect on crop by soil treatment (symbol e); conditions: for Effect on crop grade, e: wheat: application herbicide amount 320 g/ha
In short: as §3

[13] = tested on: Echinochloa crus-galli var. crus-galli; experiment: Test Example 5: herbicidal effect by foliage application, plastic box (symbol H); conditions: 3 weeks after application
In short: as §2

[14] = tested on: Veronica persica; experiment: Test Example 4: herbicidal effect by soil treatment (symbol R); conditions: for Herbicidal effect grade, R: Veronica persica: application herbicide amount 320 g/ha
In short: as §1

[15] = tested on: Alopecurus myosuroides; experiment: Test Example 5: herbicidal effect by foliage application, plastic box (symbol J); conditions: 3 weeks after application
In short: as §2

[16] = tested on: Alopecurus myosuroides; experiment: Test Example 4: herbicidal effect by soil treatment (symbol J); conditions: for Herbicidal effect grade, J: Alopecurus myosuroides: application herbicide amount 320 g/ha
In short: as §1

[17] = tested on: Setaria viridis; experiment: Test Example 4: herbicidal effect by soil treatment (symbol G); conditions: for Herbicidal effect grade, G: Setaria viridis: application herbicide amount 320 g/ha
In short: as §1

[18] = application herbicide amount 102 g/ha
[19] = application herbicide amount 320 g/ha

SMILES: CC(=O)CC1CC(O)=C(c2c(C)cc(C)cc2C)C1=O (centres unmarked) [2-001, 3-hydroxy-2-mesityl-5-(2-oxopropyl)cyclopent-2-enone]
- L: Apera spica-venti, herbicidal effect grade ([1]; 102 g/ha): 2 (Herbicidal ratio of 20% or higher and lower than 40%)
- b: directly sowed rice plant, effect on crop grade ([2]; 102 g/ha): 4 (Herbicidal ratio of 70% or higher and lower than 90%)
- Herbicidal effect grade, C: Monochoria vaginalis [3, 18]: 0 (Herbicidal ratio of 5% or lower (almost no effect))
- F: Digitaria ciliaris, herbicidal effect grade ([4]; 102 g/ha): 5 (Herbicidal ratio of 90% or more (almost completely withered))
- d: soybean, effect grade on crop ([5]; 102 g/ha): 0 (Herbicidal ratio of 5% or lower (almost no effect))
- M: Abutilon theophrasti, herbicidal effect grade ([6]; 102 g/ha): 3 (Herbicidal ratio of 40% or higher and lower than 70%)
- I: Avena fatua, herbicidal effect grade ([7]; 102 g/ha): 0 (Herbicidal ratio of 5% or lower (almost no effect))
- O: Chenopodium album, herbicidal effect grade ([8]; 102 g/ha): 3 (Herbicidal ratio of 40% or higher and lower than 70%)
- Herbicidal effect grade, B: Scirpus juncoides [9, 18]: 0 (Herbicidal ratio of 5% or lower (almost no effect))
- P: Stellaria media, herbicidal effect grade ([10]; 102 g/ha): 0 (Herbicidal ratio of 5% or lower (almost no effect))
- b: directly sowed rice plant, effect grade on crop ([11]; 102 g/ha): 5 (Herbicidal ratio of 90% or more (almost completely withered))
- e: wheat, effect grade on crop ([12]; 102 g/ha): 0 (Herbicidal ratio of 5% or lower (almost no effect))
- H: Echinochloa crus-galli var. crus-galli, herbicidal effect grade ([13]; 102 g/ha): 5 (Herbicidal ratio of 90% or more (almost completely withered))
- R: Veronica persica, herbicidal effect grade ([14]; 102 g/ha): 0 (Herbicidal ratio of 5% or lower (almost no effect))
- J: Alopecurus myosuroides, herbicidal effect grade ([15]; 102 g/ha): 5 (Herbicidal ratio of 90% or more (almost completely withered))
- J: Alopecurus myosuroides, herbicidal effect grade ([16]; 102 g/ha): 4 (Herbicidal ratio of 70% or higher and lower than 90%)
- G: Setaria viridis, herbicidal effect grade ([17]; 102 g/ha): 4 (Herbicidal ratio of 70% or higher and lower than 90%)

SMILES: CC#Cc1cc(C)c(C2=C(OC(=O)COc3ccccc3)CC(CC(C)=NOCC(F)(F)F)C2=O)c(C)c1 (centres unmarked) [9-013]
- Herbicidal effect grade, L: Apera spica-venti [1]: 5 (Herbicidal ratio of 90% or more (almost completely withered))
- b: directly sowed rice plant, effect on crop grade ([2]; 320 g/ha): 5 (Herbicidal ratio of 90% or more (almost completely withered))
- Herbicidal effect grade, C: Monochoria vaginalis [3, 19]: 3 (Herbicidal ratio of 40% or higher and lower than 70%)
- F: Digitaria ciliaris, herbicidal effect grade ([4]; 320 g/ha): 5 (Herbicidal ratio of 90% or more (almost completely withered))
- Effect on crop grade, d: soybean [5]: 0 (Herbicidal ratio of 5% or lower (almost no effect))
- Herbicidal effect grade, M: Abutilon theophrasti [6]: 3 (Herbicidal ratio of 40% or higher and lower than 70%)
- Herbicidal effect grade, I: Avena fatua [7]: 5 (Herbicidal ratio of 90% or more (almost completely withered))
- O: Chenopodium album, herbicidal effect grade ([8]; 320 g/ha): 3 (Herbicidal ratio of 40% or higher and lower than 70%)
- B (Scirpus juncoides) herbicidal effect grade [9, 19]: 5 (Herbicidal ratio of 90% or more (almost completely withered))
- Herbicidal effect grade, P: Stellaria media [10]: 0 (Herbicidal ratio of 5% or lower (almost no effect))
- Effect on crop grade, b: directly sowed rice plant [11]: 5 (Herbicidal ratio of 90% or more (almost completely withered))
- Effect on crop grade, e: wheat [12]: 4 (Herbicidal ratio of 70% or higher and lower than 90%)
- H: Echinochloa crus-galli var. crus-galli, herbicidal effect grade ([13]; 320 g/ha): 5 (Herbicidal ratio of 90% or more (almost completely withered))
- Herbicidal effect grade, R: Veronica persica [14]: 4 (Herbicidal ratio of 70% or higher and lower than 90%)
- J: Alopecurus myosuroides, herbicidal effect grade ([15]; 320 g/ha): 5 (Herbicidal ratio of 90% or more (almost completely withered))
- Herbicidal effect grade, J: Alopecurus myosuroides [16]: 5 (Herbicidal ratio of 90% or more (almost completely withered))
- Herbicidal effect grade, G: Setaria viridis [17]: 5 (Herbicidal ratio of 90% or more (almost completely withered))

SMILES: CC(CC1CC(O)=C(c2c(C)cc(C)cc2C)C1=O)=NOCc1cccc(Cl)c1 (centres unmarked) [1-114]
- L: Apera spica-venti, herbicidal effect grade ([1]; 320 g/ha): 5 (Herbicidal ratio of 90% or more (almost completely withered))
- b: directly sowed rice plant, effect on crop (criteria 0-5) ([2]; 320 g/ha): 5 (Herbicidal ratio of 90% or more (almost completely withered))
- Herbicidal effect grade, C: Monochoria vaginalis [3, 19]: 4 (Herbicidal ratio of 70% or higher and lower than 90%)
- F: Digitaria ciliaris, herbicidal effect (criteria 0-5) ([4]; 320 g/ha): 5 (Herbicidal ratio of 90% or more (almost completely withered))
- d: soybean, effect grade on crop ([5]; 320 g/ha): 0 (Herbicidal ratio of 5% or lower (almost no effect))
- M: Abutilon theophrasti, herbicidal effect grade ([6]; 320 g/ha): 0 (Herbicidal ratio of 5% or lower (almost no effect))
- I: Avena fatua, herbicidal effect grade ([7]; 320 g/ha): 3 (Herbicidal ratio of 40% or higher and lower than 70%)
- O: Chenopodium album, herbicidal effect (criteria 0-5) ([8]; 320 g/ha): 3 (Herbicidal ratio of 40% or higher and lower than 70%)
- Herbicidal effect grade, B: Scirpus juncoides [9, 19]: 5 (Herbicidal ratio of 90% or more (almost completely withered))
- P: Stellaria media, herbicidal effect grade ([10]; 320 g/ha): 0 (Herbicidal ratio of 5% or lower (almost no effect))
- b: directly sowed rice plant, effect grade on crop ([11]; 320 g/ha): 3 (Herbicidal ratio of 40% or higher and lower than 70%)
- e: wheat, effect grade on crop ([12]; 320 g/ha): 0 (Herbicidal ratio of 5% or lower (almost no effect))
- H: Echinochloa crus-galli var. crus-galli, herbicidal effect (criteria 0-5) ([13]; 320 g/ha): 5 (Herbicidal ratio of 90% or more (almost completely withered))
- R: Veronica persica, herbicidal effect grade ([14]; 320 g/ha): 0 (Herbicidal ratio of 5% or lower (almost no effect))
- J: Alopecurus myosuroides, herbicidal effect (criteria 0-5) ([15]; 320 g/ha): 4 (Herbicidal ratio of 70% or higher and lower than 90%)
- J: Alopecurus myosuroides, herbicidal effect grade ([16]; 320 g/ha): 4 (Herbicidal ratio of 70% or higher and lower than 90%)
- G: Setaria viridis, herbicidal effect grade ([17]; 320 g/ha): 5 (Herbicidal ratio of 90% or more (almost completely withered))

SMILES: Cc1cc(-n2cc(Cl)cn2)cc(C)c1C1=C(O)CC(CC(=NOCC(F)(F)F)C(C)C)C1=O (centres unmarked) [9-014]
- Herbicidal effect grade, L: Apera spica-venti [1]: 0 (Herbicidal ratio of 5% or lower (almost no effect))
- b: directly sowed rice plant, effect on crop grade ([2]; 320 g/ha): 5 (Herbicidal ratio of 90% or more (almost completely withered))
- Herbicidal effect grade, C: Monochoria vaginalis [3, 19]: 0 (Herbicidal ratio of 5% or lower (almost no effect))
- F: Digitaria ciliaris, herbicidal effect grade ([4]; 320 g/ha): 5 (Herbicidal ratio of 90% or more (almost completely withered))
- Effect on crop grade, d: soybean [5]: 0 (Herbicidal ratio of 5% or lower (almost no effect))
- Herbicidal effect grade, M: Abutilon theophrasti [6]: 0 (Herbicidal ratio of 5% or lower (almost no effect))
- Herbicidal effect grade, I: Avena fatua [7]: 0 (Herbicidal ratio of 5% or lower (almost no effect))
- O: Chenopodium album, herbicidal effect grade ([8]; 320 g/ha): 0 (Herbicidal ratio of 5% or lower (almost no effect))
- B (Scirpus juncoides) herbicidal effect grade [9, 19]: 4 (Herbicidal ratio of 70% or higher and lower than 90%)
- Herbicidal effect grade, P: Stellaria media [10]: 0 (Herbicidal ratio of 5% or lower (almost no effect))
- Effect on crop grade, b: directly sowed rice plant [11]: 1 (Herbicidal ratio of 5% or higher and lower than 20%)
- Effect on crop grade, e: wheat [12]: 0 (Herbicidal ratio of 5% or lower (almost no effect))
- H: Echinochloa crus-galli var. crus-galli, herbicidal effect grade ([13]; 320 g/ha): 5 (Herbicidal ratio of 90% or more (almost completely withered))
- Herbicidal effect grade, R: Veronica persica [14]: 0 (Herbicidal ratio of 5% or lower (almost no effect))
- J: Alopecurus myosuroides, herbicidal effect grade ([15]; 320 g/ha): 4 (Herbicidal ratio of 70% or higher and lower than 90%)
- Herbicidal effect grade, J: Alopecurus myosuroides [16]: 0 (Herbicidal ratio of 5% or lower (almost no effect))
- Herbicidal effect grade, G: Setaria viridis [17]: 3 (Herbicidal ratio of 40% or higher and lower than 70%)
